Laboratory results published in patent publication US6900033B2, “Methods and compositions for modulating ACE-2 activity” (Human Genome Sciences, Inc., priority 2001, dated 2005).
Values joined by “and” are separate entries in the source; they are usually repeats but may differ in a detail not shown here. Equal entries are not always repeated. “Also recorded” adds a separate entry of the source. Each block holds one compound with its values, some of them ahead of it. Positions of bridges follow the written chain, without caps; N, C: chain ends.

Columns and labels:
ACE-2 [1] = biological target: T1, ACE-2 (Homo sapiens, UniProt Q9BYF1); details: literature (Donoghue 2000; Tipnis 2000); cited from earlier work
T1 construct: nucleotides corresponding to the extracellular domain (M1-S740); FLAG; made in house; host or cells: Sf9 insect cells (recombinant baculovirus, transfer vector pA2); purified from conditioned media

ACE-2 [2] = biological target: T1, ACE-2; test: Fluorometric ACE-2 inhibition assay with peptide M-2195 as substrate; assay type: biochemical; details: ACE-2 activity, M-2195 substrate, enzyme pre-incubated 30 minutes with inhibitor, 100 mM TRIS pH 7.4
Description: Assay mixture was prepared first by pre-incubating (30 minutes, room temperature) the enzyme with the inhibitor (0.45 μg ([…]) ACE-2, 0-0.5 μM inhibitor rage, up to 90 […] volume with 100 mM TRIS pH 7.4, 0.1% Tween-20, 0.4% DMSO) in each well, in triplicate, by dispensing volumes using a repeat pipetter (Rainin) into a 96-well clear-bottom back plate (Costar, 07-200-590). […] Substrate stock (10 μL of 10× concentration) was added to each well to be tested in blocks of three vertically down the plate. The reaction was monitored on a Spectrafluor Plus (Tecan) at an excitation wavelength of 340 nm and an emission wavelength of 400 nm (+/−35 nm) every 30 seconds for a time period of 10 minutes.
ACE-2 cleaves off the C-terminal lysine from the peptide with a concomitant increase in fluorescence signal.
The assays were performed in 96-well clear-bottom black plates (Costar, 07-200-590). In each well, 0.45 μg (5 pmoles) of ACE-2 is added to 90 μL of an assay solution containing 100 mM TRIS at pH 7.4, 0.1% Tween, and 0.4% DMSO. Substrate stock at 10 μL of 10× concentration is added to each well (for example, 10 μL of 1 mM stock for a final 100 μM concentration). The reaction was monitored on a Spectrafluor Plus (Tecan) at an excitation wavelength of 340 nm and an emission wavelength of 400 nm (+/−35 nm) every 30 seconds up to 10 minutes. All samples were measured in triplicate.

[3] = test system: isolated aortic vascular rings; test: Developed isometric tension of isolated rat aortic vascular rings; details: for potentiation of angiotensin II-mediated vasoconstriction: peptide combined with angiotensin II
Excerpt: The effects of graded doses of A1-9 (Fields et al., Peptide Research 4: 95-101 (1991)) or A1-10 (substrate control) alone or in combination (Tallarida, Drug Synergism and Dose-Effect Data Analysis, Chapman and Hall/CRC, New York (2000), Tallarida et al., Life Science 61: PL417-425 (1997)) with angiotensin II were examined on isolated aortic vascular rings developed tension in response to vasoactive substances. Aortas were removed from mature male Sprague-Dawley rats, cleared of connective tissue, and cut into 1 mm rings. Rings were mounted to an isometric force transducer and placed in Krebs-Henseleit solution bubbled with 95% 02/5% C02 at 37° C. Rings were exposed to a 2 g preload, relaxed and then exposed to various concentrations of angiotensin peptides alone or in combination. Following angiotensin peptide dosing, rings were fully constricted with KCl to determine the maximum degree of vasoconstriction.
The maximum tension developed by A1-9 was minimal and always less than that of angiotensin II.

[4] = test system: awake, free-ranging Sprague-Dawley rats; test: Arterial pressure in awake, free-ranging Sprague-Dawley rats, intravenous infusion; assay type: in vivo, rat
Description: To investigate the effects of A1-9 on arterial pressure, A1-9 was administered to awake, free-ranging Sprague-Dawley rats via indwelling intravenous and arterial catheters. Intravenous infusion of A1-9 (1-3 μg/kg/min) in the awake rat produced a dose-dependent tonic increase in mean arterial pressure to a maximum of approximately 30 mmHg (FIG. 2). […] These responses seen with A1-9 were similar in magnitude to those induced by angiotensin II.
To examine any interactions induced by coadministration of A1-9 and angiotensin II, arterial pressure was monitored in the awake rat after they received either A1-9 (1 μg/kg/min) or saline coinfused with angiotensin 11 (1-100 ng/kg/min).

isolated rat aorta = details: literature (Oparil 1971); cited from earlier work
anesthetized rats = details: literature (Oparil 1971); cited from earlier work
anesthetized dogs = details: literature (Oparil 1971); cited from earlier work
[5] = intravenous infusion 1-3 μg/kg/min, awake rat

T1 sequence (Q9BYF1 18-740): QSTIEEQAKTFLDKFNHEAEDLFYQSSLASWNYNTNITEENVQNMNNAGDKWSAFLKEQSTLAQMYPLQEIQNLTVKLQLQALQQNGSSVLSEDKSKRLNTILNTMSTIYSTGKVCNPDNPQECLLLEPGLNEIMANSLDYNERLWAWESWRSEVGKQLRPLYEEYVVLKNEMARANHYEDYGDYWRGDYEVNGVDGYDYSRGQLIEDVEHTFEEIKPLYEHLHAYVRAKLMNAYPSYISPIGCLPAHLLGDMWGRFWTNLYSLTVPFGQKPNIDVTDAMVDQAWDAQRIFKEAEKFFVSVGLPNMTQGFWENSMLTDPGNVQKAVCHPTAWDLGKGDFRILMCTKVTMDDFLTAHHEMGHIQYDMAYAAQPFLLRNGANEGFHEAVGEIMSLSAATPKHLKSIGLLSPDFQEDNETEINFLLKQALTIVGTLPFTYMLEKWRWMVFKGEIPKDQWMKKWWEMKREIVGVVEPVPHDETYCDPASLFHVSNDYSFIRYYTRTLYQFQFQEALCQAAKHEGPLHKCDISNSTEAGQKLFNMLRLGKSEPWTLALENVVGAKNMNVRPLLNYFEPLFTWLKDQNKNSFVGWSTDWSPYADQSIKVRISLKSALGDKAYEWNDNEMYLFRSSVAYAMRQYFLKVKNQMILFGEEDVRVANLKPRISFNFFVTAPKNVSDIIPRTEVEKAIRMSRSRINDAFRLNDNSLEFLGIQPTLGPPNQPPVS

Compound: C[C@H](CS)C(=O)N1CCC[C@H]1C(=O)O [captopril]
block of ACE-2 conversion of angiotensin I to angiotensin 1-9 (ACE-2 [1]): not blocked

Inhibition (ACE-2 [2]): −
Compound: Ac-AGEGNCFLIGPWCFEFGTEGGG-NH2 (disulfide 6-13 (inferred)) [DX-504]

Inhibition (ACE-2 [2]): −
Compound: Ac-AGVYFCFDWEQDCDEMGTEGGG-NH2 (disulfide 6-13 (inferred)) [DX-528]

Inhibition (ACE-2 [2]): −
Compound: Ac-AGWVLCFEWEDCDEKGTEGGG-NH2 (disulfide 6-12 (inferred)) [DX-527]

Inhibition (ACE-2 [2]): −
Compound: Ac-GDDDDCGWIGFANFHLCLHGDPEGGG-NH2 (disulfide 6-17 (inferred)) [DX-510]

Inhibition (ACE-2 [2]): −
Compound: Ac-GSDQNCFAMYCFEFAPGEGGG-NH2 (disulfide 6-11 (inferred)) [DX-503]

Inhibition (ACE-2 [2]): −
Compound: Ac-GSLEMCEALFCVEFAPGEGGG-NH2 (disulfide 6-11 (inferred)) [DX-502]

Inhibition (ACE-2 [2]): −
Compound: Ac-GSNDYCTVFTGALFCLDFAPEGGG-NH2 (disulfide 6-15 (inferred)) [DX-507]

Compound: angiotensin I (DRVYIHPFHL; Angiotensin-1; UniProt P01019 25-34, looked up) [substrate control; the ACE and ACE-2 substrate]
potentiation of angiotensin II-mediated vasoconstriction [3]: failed to potentiate

Compound: des-Leu^10-angiotensin I (DRVYIHPFH; Angiotensin 1-9; UniProt P01019 25-33, looked up) [A1-9, nonapeptide formed by removal of the C-terminal leucine from angiotensin I]
Al-9 % Max. Developed Force ([3]; Emax, A1-9 alone, 1-30 nM, mature rat aortic rings, % of KCl maximum, one value per experiment 1-5, listed as Al-9): 3.5% and 0% and 7.5% and 6.4% and 3.2%
potentiation of angiotensin II-mediated vasoconstriction [3]: synergistic or supraadditive potentiation
vasoconstrictor activity of the peptide alone ([3]; rat aortic rings): no effect on vascular tone; also recorded: virtually devoid of activity
factor of increase of the relative potency of angiotensin II beyond simple additive potentiation ([3]; shift of angiotensin II dose-effect curve by A1-9, FIG. 1): 11.6 (95% confidence limits of 3.02-44.7)
effect on the pressor response to angiotensin II ([4]; coinfused with angiotensin II 1-100 ng/kg/min, A1-9 at 1 μg/kg/min): potentiated the pressor response elicted by angiotensin II in an additive fashion
heart rate [4, 5]: decreased in a dose-dependent manner
maximum increase in mean arterial pressure [4, 5]: approximately 30 mmHg
pulse pressure (systolic - diastolic) [4, 5]: elevated
vasoconstrictor activity (isolated rat aorta): weak vasoconstrictor
pressor activity (anesthetized rats): weak pressor activity
pressor activity (anesthetized dogs): weak pressor activity
